Laboratory results: US7396837B2, “Antitumoral analogs of lamellarins” (Pharma Mar, S.A.U., priority 2002, dated 2008)
Where two headings read alike, the source gives them in different places.

Experiments:
Assay type in all cases: cell-based
SK-BR-3 = experiment: SRB colorimetric cell growth inhibition assay, SK-BR-3
Outline: (§1)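 Cancer cells grown in vitro were continuously treated with compound. Cell mass was then determined by SRB staining and expressed as growth inhibition.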

K-562 = experiment: SRB colorimetric cell growth inhibition assay, K-562; details: Homo sapiens
Outline: as §1

A-549 = experiment: SRB colorimetric cell growth inhibition assay, A-549
Outline: as §1

IGROV = experiment: SRB colorimetric cell growth inhibition assay, IGROV; details: for GI50: read-out: GI50 IGROV; for IC (TGI): read-out: TGI IGROV
Outline: as §1

LNCaP = experiment: SRB colorimetric cell growth inhibition assay, LNCaP; details: Homo sapiens, LNCaP; for GI50: read-out: GI50 LN-caP; for IC (TGI): read-out: TGI LN-caP
Outline: as §1

IGROV-ET = experiment: SRB colorimetric cell growth inhibition assay, IGROV-ET (ET-743 resistant); details: Homo sapiens; for GI50: read-out: GI50 IGROV-ET; for IC (TGI): read-out: TGI IGROV-ET
Outline: as §1

LoVo = experiment: SRB colorimetric cell growth inhibition assay, LoVo; details: Homo sapiens, LoVo; for GI50: read-out: GI50 LOVO; for IC (TGI): read-out: TGI LOVO
Outline: as §1

PANC-1 = experiment: SRB colorimetric cell growth inhibition assay, PANC-1
Outline: as §1

SK-MEL-28 = experiment: SRB colorimetric cell growth inhibition assay, SK-MEL-28
Outline: as §1

DU-145 = experiment: SRB colorimetric cell growth inhibition assay, DU-145
Outline: as §1

LoVo-Dox = experiment: SRB colorimetric cell growth inhibition assay, LoVo-Dox (MDR); details: Homo sapiens; for GI50: read-out: GI50 LOVO-DOX; for IC (TGI): read-out: TGI LOVO-DOX
Outline: as §1

HT-29 = experiment: SRB colorimetric cell growth inhibition assay, HT-29
Outline: as §1

SKOV-3 = experiment: SRB colorimetric cell growth inhibition assay, SKOV-3; details: Homo sapiens; for LC50 (concentration causing 50% net cell killing): SK-OV-3, read-out: LC50 SKOV-3
Outline: (§2)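 Sulforhodamine B colorimetric assay of cell growth and viability, mean ± SD of triplicate wells. Parameters derived: GI (growth inhibition), TGI (total growth inhibition, cytostatic) and LC (cell killing, cytotoxic).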

[1] = SRB colorimetric cell growth inhibition assay, H-MEC-1; details: human
Outline: as §2

H-MEC-1 = experiment: as above; details: Homo sapiens
Outline: as §2

Compound: COc1cc(-c2c3c4cc(OC)c(OC(=O)[C@@H](N)C(C)C)cc4oc(=O)c3n3ccc4c(OC(=O)[C@@H](N)C(C)C)c(OC)c(OC)cc4c23)ccc1OC(=O)[C@@H](N)C(C)C [Compound 35]
- IC (TGI) (SK-BR-3; Homo sapiens, SK-BR-3, SK-BR-3, total growth inhibition (cytostatic effect), read-out: TGI SK-BR-3): 0.689 µM
- CC50 (SK-BR-3; Homo sapiens, SK-BR-3, read-out: LC50 SK-BR-3, SK-BR-3, cell killing (cytotoxic effect)): 4.03 µM
- GI50 (SK-BR-3; SK-BR-3, GI=growth inhibition, read-out: GI50 SK-BR-3): 0.228 µM
- GI50 (K-562; K562, K-562, GI=growth inhibition, read-out: GI50 K-562): 0.0808 µM
- IC (TGI) (K-562; K562, K-562, TGI=total growth inhibition (cytostatic effect), read-out: TGI K-562): 0.975 µM
- CC50 (K-562; K562, read-out: LC50 K-562, K-562, LC=cell killing (cytotoxic effect)): 4.82 µM
- GI50 (A-549; A-549, GI=growth inhibition, read-out: GI50 A-549): 0.0524 µM
- IC (TGI) (A-549; Homo sapiens, A549, A-549, TGI=total growth inhibition (cytostatic effect), read-out: TGI A-549): 0.259 µM
- CC50 (A-549; Homo sapiens, A549, read-out: LC50 A-549, A-549, LC=cell killing (cytotoxic effect)): 6.09 µM
- GI50 (IGROV; Homo sapiens, IGROV, GI=growth inhibition): 0.152 µM
- IC (TGI) (IGROV; Homo sapiens, IGROV, total growth inhibition (cytostatic effect)): 0.907 µM
- CC50 (IGROV; human): 4.05 µM
- GI50 (LNCaP; LN-caP, GI=growth inhibition): 0.0881 µM
- IC (TGI) (LNCaP; LN-caP, total growth inhibition (cytostatic effect)): 0.468 µM
- CC50 (LNCaP; read-out: LC50 LN-caP, LN-caP, cell killing (cytotoxic effect)): 2.22 µM
- GI50 (IGROV-ET; IGROV-ET, GI=growth inhibition): 0.192 µM
- IC (TGI) (IGROV-ET; IGROV-ET, total growth inhibition (cytostatic effect)): 0.855 µM
- CC50 (IGROV-ET; read-out: LC50 IGROV-ET, IGROV-ET, cell killing (cytotoxic effect)): 5.45 µM
- CC50 (LoVo; read-out: LC50 LOVO, LOVO, LC=cell killing (cytotoxic effect)): 2.6 µM
- GI50 (LoVo; GI=growth inhibition): 0.207 µM
- IC (TGI) (LoVo; TGI=total growth inhibition (cytostatic effect)): 0.705 µM
- IC (TGI) (PANC-1; Homo sapiens, PANC-1, PANC-1, TGI=total growth inhibition (cytostatic effect), read-out: TGI PANC-1): 1.21 µM
- CC50 (PANC-1; Homo sapiens, PANC-1, read-out: LC50 PANC-1, PANC-1, LC=cell killing (cytotoxic effect)): 3.67 µM
- GI50 (PANC-1; PANC-1, GI=growth inhibition, read-out: GI50 PANC-1): 0.178 µM
- IC (TGI) (SK-MEL-28; Homo sapiens, SK-MEL-28, MEL-28, total growth inhibition (cytostatic effect), read-out: TGI MEL-28): 0.915 µM
- GI50 (SK-MEL-28; MEL-28, GI=growth inhibition, read-out: GI50 MEL-28): 0.0546 µM
- CC50 (SK-MEL-28; human): 2.77 µM
- TGI DU-145 (DU-145; DU-145, total growth inhibition (cytostatic effect)): 8.81E−08 Molar
- GI50 (DU-145; Homo sapiens, DU-145, DU-145, GI=growth inhibition, read-out: GI50 DU-145): 0.0321 µM
- CC50 (DU-145; human): 0.576 µM
- GI50 (LoVo-Dox; LOVO-DOX, GI=growth inhibition): 0.217 µM
- IC (TGI) (LoVo-Dox; LOVO-DOX, TGI=total growth inhibition (cytostatic effect)): 0.737 µM
- CC50 (LoVo-Dox; read-out: LC50 LOVO-DOX, LOVO-DOX, LC=cell killing (cytotoxic effect)): 2.8 µM
- GI50 (HT-29; HT-29, GI=growth inhibition, read-out: GI50 HT-29): 1.18 µM
- IC (TGI) (HT-29; Homo sapiens, HT-29, HT-29, TGI=total growth inhibition (cytostatic effect), read-out: TGI HT-29): 2.44 µM
- CC50 (HT-29; Homo sapiens, HT-29, read-out: LC50 HT-29, HT-29, LC=cell killing (cytotoxic effect)): 5.06 µM
- GI50 (SKOV-3; SK-OV-3, SKOV-3, GI=growth inhibition, read-out: GI50 SKOV-3): 0.113 µM
- LC50 (concentration causing 50% net cell killing) (SKOV-3): 3.83 µM
- IC (TGI) (SKOV-3; SK-OV-3, SKOV-3, total growth inhibition (cytostatic effect), read-out: TGI SKOV-3): 0.932 µM
- LC50 (concentration giving 50% net cell killing) [1]: 0.0826 µM
- GI50 (H-MEC-1; HMEC-1, H-MEC-1, GI=growth inhibition, read-out: GI50 H-MEC-1): 0.0197 µM
- IC (TGI) (H-MEC-1; HMEC-1, H-MEC-1, total growth inhibition (cytostatic effect), read-out: TGI H-MEC-1): 0.0403 µM

Compound: COc1cc(-c2c3c4cc(OC)c(O)cc4oc(=O)c3n3ccc4c(O)c(OC)c(OC)cc4c23)ccc1O [Compound 2]
- GI50 (SK-BR-3; Homo sapiens, SK-BR-3, read-out: GI50 SK-BR-3): 0.314 µM
- CC50 (SK-BR-3; Homo sapiens, SK-BR-3, read-out: LC50 SK-BR-3): ≥ 18.8 µM
- IC (TGI) (SK-BR-3; Homo sapiens, SK-BR-3, read-out: TGI SK-BR-3): 2.36 µM
- GI50 (K-562; K562, read-out: GI50 K-562): 0.117 µM
- CC50 (K-562; K562, read-out: LC50 K-562): 18.9 µM
- IC (TGI) (K-562; K562, read-out: TGI K-562): 2.25 µM
- GI50 (A-549; Homo sapiens, A549, read-out: GI50 A-549): 0.674 µM
- CC50 (A-549; Homo sapiens, A549, read-out: LC50 A-549): 18.9 µM
- IC (TGI) (A-549; Homo sapiens, A549, read-out: TGI A-549): 18.9 µM
- GI50 (IGROV; Homo sapiens, IGROV): 0.88 µM
- CC50 (IGROV; Homo sapiens, IGROV, read-out: LC50 IGROV): ≥ 18.9 µM
- IC (TGI) (IGROV; Homo sapiens, IGROV): 5.17 µM
- GI50 (LNCaP): 0.0727 µM
- CC50 (LNCaP; read-out: LC50 LN-caP): 1.44 µM
- IC (TGI) (LNCaP): 0.398 µM
- GI50 (IGROV-ET): 1.98 µM
- CC50 (IGROV-ET; read-out: LC50 IGROV-ET): ≥ 18.9 µM
- IC (TGI) (IGROV-ET): 8.12 µM
- GI50 (LoVo): 0.398 µM
- CC50 (LoVo; read-out: LC50 LOVO): 16 µM
- IC (TGI) (LoVo): 3.02 µM
- GI50 (PANC-1; Homo sapiens, PANC-1, read-out: GI50 PANC-1): 0.988 µM
- CC50 (PANC-1; Homo sapiens, PANC-1, read-out: LC50 PANC-1): 18.9 µM
- IC (TGI) (PANC-1; Homo sapiens, PANC-1, read-out: TGI PANC-1): 6.97 µM
- GI50 (SK-MEL-28; Homo sapiens, SK-MEL-28, read-out: GI50 MEL-28): 0.302 µM
- CC50 (SK-MEL-28; Homo sapiens, SK-MEL-28, read-out: LC50 MEL-28): ≥ 18.9 µM
- IC (TGI) (SK-MEL-28; Homo sapiens, SK-MEL-28, read-out: TGI MEL-28): 3.66 µM
- GI50 (DU-145; Homo sapiens, DU-145, read-out: GI50 DU-145): 0.064 µM
- CC50 (DU-145; Homo sapiens, DU-145, read-out: LC50 DU-145): ≥ 18.9 µM
- IC (TGI) (DU-145; Homo sapiens, DU-145, read-out: TGI DU-145): 0.14 µM
- GI50 (LoVo-Dox): 0.604 µM
- CC50 (LoVo-Dox; read-out: LC50 LOVO-DOX): 18.9 µM
- IC (TGI) (LoVo-Dox): 3.83 µM
- GI50 (HT-29; Homo sapiens, HT-29, read-out: GI50 HT-29): 8.31 µM
- CC50 (HT-29; Homo sapiens, HT-29, read-out: LC50 HT-29): 18.9 µM
- IC (TGI) (HT-29; Homo sapiens, HT-29, read-out: TGI HT-29): 18.9 µM
- GI50 (SKOV-3; SK-OV-3, read-out: GI50 SKOV-3): 0.14 µM
- LC50 (concentration causing 50% net cell killing) (SKOV-3): ≥ 18.9 µM
- IC (TGI) (SKOV-3; SK-OV-3, read-out: TGI SKOV-3): 5.1 µM
- LC50 (concentration giving 50% net cell killing) ([1]; H-MEC-1, cell killing (cytotoxic effect), read-out: LC50 H-MEC-1): ≥ 18.9 µM
- GI50 (H-MEC-1; HMEC-1, read-out: GI50 H-MEC-1): 0.665 µM
- IC (TGI) (H-MEC-1; HMEC-1, read-out: TGI H-MEC-1): 18.9 µM
